Data reported in patent publication US8252748B2, “Peptide derived from neurotensin receptor 3 and use thereof in the treatment of psychiatric diseases” (Centre National de la Recherche Scientifique—CNRS, priority 2007, dated 2012).
No end group written: not given here.

Columns and labels:
[1] = tested on: hippocampus progenitor cells; experiment: Hippocampal neurogenesis (BrdU-positive cells), 2 weeks of treatment; assay type: in vivo, mouse; details: 10 μM propeptide injected for 2 weeks
Procedure: Treatments with antidepressants are known to increase neurogenesis in the hippocampus (Santarelli, L., Saxe, M, Gross, C, Surget, A, Battaglia, F, Dulawa, S, Weisstaub, N, Lee, J, Duman, R, Arancio, O, Belzung, C, Hen, R et al. “Requirement of hippocampal neurogenesis for the behavioral effects of antidepressants” Science, 301: 805-809 (2003) (24). This cellular proliferation is measured from the increase of “progenitor” cells that incorporate a marker, 5-bromo-2-deoxyuridine (BrdU), and are transformed to mature neurons. The BrdU is detected by immunohistochemistry.
On day 1, the animals are injected IP with 300 μl of an aqueous solution of 10 mM of BrdU, then put back in the cage.
On day 2, the animals are euthanased and then the tissues are fixed by intracardiac perfusion of a cold solution of 4% paraformaldehyde. The brains are removed and then frozen at −20° C.
Series of 40 μm sections are prepared, so as to cover the entire hippocampal structure, using a vibratome (Leica). One section out of six is retained for measuring the incorporation of BrdU by means of a monoclonal mouse anti-BrdU antibody (Becton Dickinson). […] The peroxidase activity is visualized by hydrolysis of DAB. The cells labeled in this way are counted on each section. […]

[2] = tested on: C57BL6/J mice; experiment: Focal ischemia (middle cerebral artery occlusion), infarct size; assay type: in vivo, mouse; details: daily IP 100 μl at 10^−5 M for a week, vs physiological saline
Procedure: The model used for inducing a CVA is that of focal ischemia, which consists of occlusion of the middle cerebral artery with a thread (Heurteaux C., Laigle, C., Blondeau, N., Jarretou, G., Lazdunski, M. “Alpha-linolenic acid and riluzole treatment confer cerebral protection and improve survival after focal brain ischemia” Neuroscience, 137: 241-251 (2006) (27). The size of the infarcts caused by this focal ischemia was measured after staining brain sections with cresyl violet. The infarct is measured by tracing the contour of the infarct zone by an image analysis system (Olympus DP Soft) according to the method described in Heurteaux et al., 2006 (27). The brains of C57BL6/J mice (at the rate of 10 mice per experimental group) are treated for a week with a daily intraperitoneal injection of 100 μl of a solution containing either the peptide of sequence ID No. 2 at a concentration of 10^−5M (“PE 10^−5M” group), or with a solution of physiological saline solution (“PHYS SALINE” group). The values were compared between the two groups.
The difference was evaluated using the Student t test.

Sequence: APLPRWSGPIGVSWGLR [propeptide, APLPRWSGPIGVSWGLR]
- neurogenesis (BrdU-labeled cells) [1]: considerable neurogenesis comparable to that induced by fluoxetine
- size of the infarct caused by focal ischemia [2]: does not have a significant effect
